From PMC5441137, “Positively Selected Sites at HCMV gB Furin Processing Region and Their Effects in Cleavage Efficiency” (Frontiers in Microbiology, 2017)

Tests used:
recombinant human furin [1] = molecular target: T1, recombinant human furin (Homo sapiens, UniProt P09958); assay: Analysis of furin-processed FRET substrates by LC-MS / HPLC / Maldi-TOF; assay type: biochemical; conditions: FRET peptide 5 μM, spectrofluorimeter and Maldi-TOF after 2 h of incubation with furin
T1 construct: made in house
T1 sequence (P09958 108-794): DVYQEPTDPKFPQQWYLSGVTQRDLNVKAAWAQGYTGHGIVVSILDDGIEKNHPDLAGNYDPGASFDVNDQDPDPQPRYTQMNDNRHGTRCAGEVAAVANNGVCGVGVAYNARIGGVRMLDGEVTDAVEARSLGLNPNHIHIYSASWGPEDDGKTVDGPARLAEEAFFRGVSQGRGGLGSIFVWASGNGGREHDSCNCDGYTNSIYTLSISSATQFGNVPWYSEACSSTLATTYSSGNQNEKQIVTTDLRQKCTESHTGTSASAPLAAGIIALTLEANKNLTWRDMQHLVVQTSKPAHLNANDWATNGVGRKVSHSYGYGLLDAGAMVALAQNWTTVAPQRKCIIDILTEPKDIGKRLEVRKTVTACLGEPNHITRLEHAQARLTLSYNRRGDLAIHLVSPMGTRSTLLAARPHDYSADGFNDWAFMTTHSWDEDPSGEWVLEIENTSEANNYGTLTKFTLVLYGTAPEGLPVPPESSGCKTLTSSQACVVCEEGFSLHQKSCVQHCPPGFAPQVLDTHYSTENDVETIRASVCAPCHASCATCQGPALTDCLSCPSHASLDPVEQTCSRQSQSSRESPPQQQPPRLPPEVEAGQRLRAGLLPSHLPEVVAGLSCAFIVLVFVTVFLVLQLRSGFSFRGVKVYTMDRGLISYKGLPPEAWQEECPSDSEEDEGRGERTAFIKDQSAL
Excerpt: In order to see if the mutations have an influence in cleavage, peptides containing the original reference sequences and their derivative containing positive selected mutations, were synthesized and tested against recombinant human furin. All substrates were cleaved after the double basic residues RR or KR as analyzed by Liquid Chromatography mass spectrometry (LC-MS) (Supplementary Figures S1–S3). The kcat/km ratio relates to the catalytic efficiency, meaning how fast in […] the enzyme reacts with the substrate once it encounters it. As a control, a peptide which contains a mutation previously shown to interfere with furin cleavage ([Strive et al., 2002]) was tested and as expected no cleavage was observed (Table 2 and Supplementary Figure S3).
Supplementary file Image_1.TIF: FIGURE S1 HPLC of furin-processed FRET substrates. […] Substrate and products were followed by fluorescence (Abz, ex320 nm; em420 nm) quenching (Eddnp, uv = 365 nm) indicating single cleavage site for all tested sequences. (A) gB3_22. (B) gB_20. (C) gB3_26 (D) gB2_18. (E) gB2_13. (F) gB2_19. Click here for additional data file.
Supplementary file Image_2.TIF: FIGURE S2 Mass spectra of furin-processed substrates. […] (A) gB3_22 substrate and products (1549.3, 678.7, and 888.7 Da). (B) gB2_13 (1634.4, 706.7, and 945.7 Da). (C) gB_20 (1604.3, 706.7, and 915.6 Da). […]

recombinant human furin [2] = molecular target: T1, recombinant human furin; assay: FRET peptide enzymatic kinetics assay of cleavage by furin; assay type: biochemical; conditions: for Km / kcat: FRET peptide as furin substrate, 10 mM MES, 1 mM CaCl2, pH 7.0, 37°C, fluorescence λex 320 nm/λem 420 nm, non-linear Michaelis-Menten fit (Grafit)
Method: Recombinant human furin was expressed and purified as previously described ([Kacprzak et al., 2004]). The enzyme concentration was determined by active site titration using the inhibitor decanoyl-RVKR-CMK inhibitor in 10 mM MES buffer, 1 mM CaCl2, pH 7.0 and the substrate Abz-GIRRKRSVSHQ-EDDnp.
Seven synthetic peptides were obtained by solid-phase strategy, as previously described ([Izidoro et al., 2010]) using the Fmoc-procedure in an automated multiple solid-phase peptide synthesizer (PSSM 8 system, Shimadzu, Japan) ([Hirata et al., 1995]; [Korkmaz et al., 2008]). Peptides were prepared in dimethylformamide and stock concentrations measured spectrophotometrically at 365 nm (e = 17,300 M^-1.cm^-1). The quantum yields of the FRET peptides and the products of their hydrolysis were unchanged in all tested conditions.
The FRET peptides were assayed in 10 mM MES, 1 mM CaCl2, pH 7.0, using a F-2500 spectrofluorimeter (Hitachi, Tokyo, Japan), at 37°C ([Izidoro et al., 2010]), as previously described. Fluorescence changes were monitored continuously at λex = 320 nm and λem = 420 nm. The enzyme concentrations for initial rate determinations were chosen at a level intended to hydrolyze less than 5% of the amount of added substrate over the time course of data collection.
Three kinetic parameters from the Michaelis-Menten model were analyzed, representing enzyme-substrate (km), the catalysis constant (kcat) and the kcat/km ratio. The kinetic parameters km and kcat were calculated by non-linear regression using Grafit software (Erithacus Software, Horley, Surrey, UK). km, kcat, and standard errors (less than 10%) were calculated using Grafit software (v.5.0.13, Erithacus Software, Horley, Surrey, UK) with a non-linear least squares Michaelis-Menten fit associated with a matrix invertion fitting routine to refine kcat, km and allowing estimation of the errors. Standard deviations greater than 10% are due to low values obtained.

[3] = versus genotype 3 reference peptide (gB3_22)

Substance	processing by furin (cleavage observed or not) (recombinant human furin [1])	Km (recombinant human furin [2]) [µM]	kcat (recombinant human furin [2]) [s⁻¹]	decrease in kcat/km ratio compared to the reference sequence (recombinant human furin [2]; [3])	increase in the km compared to the reference sequence (recombinant human furin [2]; [3]) [times]	increase of the kcat/km ratio compared to the reference sequence (recombinant human furin [2]; versus genotype 2 reference sequence (gB2_13)) [fold]
ATRASTSDNNT	not processed by furin					
RTKR↓DTGNTTT [gB3_26, FRET peptide of gB genotype 3 with the positively selected mutation S461D]		0.43	1.89	threefold	20	
RTKR↓STGNTTT [gB3_22]		0.02	0.25			
RTRR↓SASDNNT [gB2_20, FRET peptide of gB genotype 2 with the positively selected mutation T462A]		0.69	4.06			
RTRR↓SMSDNNT [gB2_18, FRET peptide of gB genotype 2 with the positively selected mutation T462M]		1.65	3.01			
RTRR↓SRSDNNT [gB2_19, FRET peptide of gB genotype 2 with the positively selected mutation T462R]		0.23	5.06			31
RTRR↓STSDNNT [gB2_13]		3.19	2.24			
